In patent publication US20230390273A1, “4-PHENYL-TETRAHYDROPYRIDINE DERIVATIVES FOR TREATING HEARING DISEASES” (CILCARE DEV, priority 2021, published 2023):
Counter-ions that a name gives are not always drawn. Like-named read-outs stand apart in the source and are kept apart here.

Experiments:
[1] = Solubility of paliroden and xaliproden in trans-tympanic compositions and in water (Example 2); assay type: physicochemical
Protocol: Eight compositions compatible with trans-tympanic injections were prepared: four thermoreversible gel compositions and four lipid-based mucoadhesive solutions. These eight compositions were prepared both with paliroden fumarate as active agent, and with xaliproden hydrochloride as active agent. The solubility of respectively paliroden and xaliproden in the compositions was measured.

male Wistar rats = test: ABR/DPOAE assessment, noise-induced permanent hearing loss, delayed trans-tympanic treatment (Example 7); assay type: in vivo; conditions: T0+28 days, versus traumatized animals untreated or vehicle; treatment 2 days and 9 days post-noise
Protocol: Forty male Wistar rats were selected and evenly distributed to treatment and control groups, each group comprising 8 rats at the end of the study. Randomization was performed using the ABR threshold in the left ear at 16 kHz as a criterium. The “sham” group consists in rats (n=8) that received neither noise exposure nor trans-tympanic injection. The “traumatized NaCl” group consists of rats (n=8) that received noise exposure only and trans-tympanic injections of a saline solution. The “traumatized vehicle” group consists in rats (n=8) that received noise exposure and trans-tympanic injections of placebo (a composition comprising Poloxamer 407 (7,2% w/w), Poloxamer 188 (8% w/w) and Cremophor EL® (20% w/w) in phosphate buffer pH=7.4, the percentages being expressed relative to the total weight of the composition). The “traumatized paliroden” group consists in rats (n=8) that received noise exposure and trans-tympanic injections of a composition comprising paliroden (fumarate salt), corresponding to composition 4P described in Example 2. The “traumatized xaliproden” group consists in rats (n=10) that received noise exposure and a trans-tympanic injection of a composition comprising xaliproden (hydrochloride salt), corresponding to composition 4X described in Example 2. […]

[2] = Plasma and inner ear fluid exposure after single oral gavage (Example 1); assay type: in vivo, male Wistar rats; conditions: for concentration at 1 h / concentration at 2 h / concentration at 4 h / concentration at 6 h / concentration at 8 h / concentration at 24 h: male, Wistar; for concentration at 1 h: T0 + 1 hour; for concentration at 2 h: T0 + 2 hours; for concentration at 4 h: T0 + 4 hours; for concentration at 6 h: T0 + 6 hours; for concentration at 8 h: T0 + 8 hours
Protocol: Two compositions were prepared: composition A and composition B.
Composition A is an aqueous solution comprising: • 6 mg/mL (free base equivalent) of fumarate salt of 1-[2-(4-biphenylyl)ethyl]-4-(3-trifluoromethylphenyl)-1,2,3,6-tetrahydropyridine (=paliroden fumarate), and • 0.6% w/v of methylcellulose with respect to the total volume of the aqueous solution.
Composition B is an aqueous solution comprising: • 4 mg/mL (free base equivalent) of hydrochloride salt of 1-[2-(2-naphthyl)ethyl]-4-(3-trifluoromethylphenyl)-1,2,3,6-tetrahydropyridine (=xaliproden hydrochloride), and • 10% w/v of arabic gum with respect to the total mass of the aqueous solution.
Composition A and composition B were administered to male Wistar rats (5 animals per active agent and timepoint), as described below.
Composition A was administered to 15 male Wistar rats, once, at time TO, via oral injection by gavage, at a dose of 5 mL of composition A per kilogram of the animal, i.e. a dose of 30 mg of paliroden fumarate per kilogram of the animal. The concentration of paliroden in rats plasma and in rats inner ear fluid (IEF) was measured at 6 timepoints, 5 rats being used at each timepoint for the concentration measurements (in the plasma and optionally in the IEF). The timepoints are T0+1 hour, T0+2 hours, T0+4 hours, T0+6 hours, T0+8 hours and T0+24 hours for the concentration measurement in the rats plasma. The timepoints are T0+2 hours, T0+4 hours and T0+24 hours for the concentration measurement in the rats inner ear fluid, as part of a terminal procedure including cochlea sampling and inner ear fluids collection from both ears of the rats. Bioanalytical methods were validated in both matrices (lithium heparin plasma and inner ear fluid) with a range of 0.25 to 500 ng/mL in plasma and 0.25 to 100 ng/mL in inner ear fluids.
Composition B was administered to 15 others male Wistar rats, once, at time T0, via oral injection by gavage, at a dose of 5 mL of composition B per kilogram of the animal, i.e. a dose of 20 mg of xaliproden hydrochloride per kilogram of the animal. The concentration of xaliproden in rats plasma and in rats inner ear fluid (IEF) was measured at 6 timepoints, 5 rats being used at each timepoint for the concentrations measurements (in the plasma and optionally in the IEF). The timepoints are T0+1 hour, T0+2 hours, T0+4 hours, T0+6 hours, T0+8 hours and T0+24 hours for the concentration measurement in the rats plasma. The timepoints are T0+2 hours, T0+4 hours and T0+24 hours for the concentration measurement in the rats inner ear fluid, as part of a terminal procedure including cochlea sampling and inner ear fluids collection from both ears of the rats. Bioanalytical methods were validated in both matrices (lithium heparin plasma and inner ear fluid) with a range of 0.25 to 500 ng/mL in plasma and 0.25 to 500 ng/mL in inner ear fluids.

[3] = plasma, rat, single oral 30 mg/kg, read-out: Concentration of paliroden (fumarate salt), Plasma, Mean
[4] = rat inner ear fluid, single oral 30 mg/kg, read-out: Concentration of paliroden (fumarate salt), IEF, Mean
[5] = plasma, rat, single oral 20 mg/kg, read-out: Concentration of xaliproden (hydrochloride salt), Plasma, Mean
[6] = rat inner ear fluid, single oral 20 mg/kg, read-out: Concentration of xaliproden (hydrochloride salt), IEF, Mean

Row | solubility [1] [µg/mL] | concentration at 1 h [2, 3] [ng/mL] | concentration at 2 h [2, 3] [ng/mL] | concentration at 4 h [2, 3] [ng/mL] | concentration at 6 h [2, 3] [ng/mL] | concentration at 8 h [2, 3] [ng/mL] | concentration at 24 h ([2]; plasma, rat, single oral 30 mg/kg, T0 + 24 hours, read-out: Concentration of paliroden (fumarate salt), Plasma, Mean) [ng/mL] | concentration at 2 h [2, 4] [ng/mL] | concentration at 4 h [2, 4] [ng/mL] | Concentration of paliroden (fumarate salt), IEF, Mean ([2]; rat inner ear fluid, single oral 30 mg/kg, T0 + 24 hours) | concentration at 1 h [2, 5] [ng/mL] | concentration at 2 h [2, 5] [ng/mL] | concentration at 4 h [2, 5] [ng/mL] | concentration at 6 h [2, 5] [ng/mL] | concentration at 8 h [2, 5] [ng/mL] | concentration at 24 h ([2]; plasma, rat, single oral 20 mg/kg, T0 + 24 hours, read-out: Concentration of xaliproden (hydrochloride salt), Plasma, Mean) [ng/mL] | concentration at 2 h [2, 6] [ng/mL] | concentration at 4 h [2, 6] [ng/mL] | concentration at 24 h ([2]; rat inner ear fluid, single oral 20 mg/kg, T0 + 24 hours, read-out: Concentration of xaliproden (hydrochloride salt), IEF, Mean) [ng/mL] | Compound | Effect on ABR thresholds, DPOAE amplitudes, ABR Wave I amplitudes (male Wistar rats)
1 | < 100 | 35 | 106 | 3.1 | 4.4 | 1.6 | 1.7 | 10.9 | 2.6 | BLQ | – | – | – | – | – | – | – | – | – | FC(F)(F)c1cccc(C2=CCN(CCc3ccc(-c4ccccc4)cc3)CC2)c1 [paliroden (fumarate salt), 1-[2-(4-biphenylyl)ethyl]-4-(3-trifluoromethylphenyl)-1,2,3,6-tetrahydropyridine] | did not show effect
2 | < 100 | – | – | – | – | – | – | – | – | – | 44.1 | 58 | 25.1 | 28.4 | 23.4 | 44.1 | 19.4 | 21.7 | 16 | FC(F)(F)c1cccc(C2=CCN(CCc3ccc4ccccc4c3)CC2)c1 [xaliproden (hydrochloride salt), 1-[2-(2-naphthyl)ethyl]-4-(3-trifluoromethylphenyl)-1,2,3,6-tetrahydropyridine] | did not show effect
